Consider 18 compounds from US20220227745A1, “Compounds For Modulating FXR” (NANJING RUIJIE PHARMA TECH CO., LTD., priority 2019, published 2022).

A value given as a limit tells only on which side of the number the result lay.

In the assay the target is T1, FXR LBD, GST (Homo sapiens, UniProt Q96RI1).
T1 construct: FXR LBD, GST; purchased Invitrogen PV4834
T1 sequence (Q96RI1 262-486 limits assumed): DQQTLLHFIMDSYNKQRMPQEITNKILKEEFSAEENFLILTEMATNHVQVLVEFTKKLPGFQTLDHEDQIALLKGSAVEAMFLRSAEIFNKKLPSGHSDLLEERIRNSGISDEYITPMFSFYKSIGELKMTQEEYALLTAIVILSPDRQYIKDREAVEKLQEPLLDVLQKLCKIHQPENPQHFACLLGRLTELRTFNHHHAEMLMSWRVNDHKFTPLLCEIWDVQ
Kind of assay: FXR Binding Assay (TR-FRET, Fluorescein-SRC2-2 coactivator peptide). As to conditions: for Emax / Pct Effect (Emax %): % Activity relative to positive control; for Emax: read-out: Pct Effect (Emax %); for EC50: TR-FRET FXR LBD coactivator recruitment. How it is done: The interaction between the present compounds and FXR are evaluated by Time-Resolved Fluorescence Resonance Energy Transfer (TR-FRET) competition assay. FRET describes a radiation-free energy transfer between two chromophores: a donor fluorophore in its excited state can transfer energy to an acceptor fluorophore in close proximity (typically <10 nm). In contrast to standard FRET, TR-FRET unites time-resolved fluorescence (TRF) and the FRET principle, TRF use a long-lifetime lanthanide chelate as the donor species, while lanthanide chelates are unique in that their excited-state lifetime can be on the order of a millisecond or longer. Suitable neighbors for FRET are known in the art and can be obtained.
The assay was performed in following steps: first, prepared a) 1 mM compounds (100×) in DMSO; b) reaction buffer containing 1× buffer G with 10 mM DTT; c) 4×FXR LBD (20 nM) in 1× chilled buffer G. Second, performed 3-fold serial dilution of 1 mM test compounds using DMSO from 1 mM, 10 doses in a 96-well plate (249944, Nunc). Then, used complete buffer G to dilute each 100× compounds serial dilution to 2×. Third, added 10 μl 2× compound serial dilution into 384-well plate (3677, Corning). Then, added 5 μl FXR LBD into the assay plate. Prepared a solution containing 2 μM fluorescein-SRC2-2 (4×) and 20 nM Tb anti-GST antibody (4×) in buffer G at room temperature and started the reaction by adding 5 μl the above solution into each well of the assay plate. Centrifuged the assay plates at 1000 g for 1 min and then incubated at room temperature for lhr protected from light. Finally, the plate was read at wavelengths of 520 nm and 495 nm on Envision 2104 plate reader (PerkinElmer).
A ratio (Ratio520 nm/495 nm−Ratiobackground) was calculated for each well. The activity ratio was calculated as follow: […]
Ratiopositive: The average ratio for the positive control across the plate.
Ratiovehicle: The average ratio for negative controls across the plate.
EC50 was calculated by fitting % Activity values and log of compound concentrations to nonlinear regression (dose response-variable slope) with GraphPad 5.0.
X: log of compound concentration.
In general terms: Time-resolved FRET reads energy transfer from a long-lived donor to a nearby acceptor.

In the case of `Cn1cc(C(=O)O)c2ccc(N3CCN(CCc4c(-c5ccccc5Cl)noc4C4CC4)CC3)cc21` [Example I9, 6-(4-(2-(3-(2-chlorophenyl)-5-cyclopropylisoxazol-4-yl)ethyl)piperazin-1-yl)-1-methyl-1H-indole-3-carboxylic Acid], the Emax (usually the size of the effect at its maximum, as opposed to the concentration needed) is 206% and the EC50 (in general, the midpoint of the concentration-response curve) was 1220 nM. `Cn1cc(C(=O)O)c2ccc(N3CCN(CCc4c(-c5c(F)cccc5F)noc4C4CC4)CC3)cc21` [Example I11, 6-(4-(2-(5-cyclopropyl-3-(2,6-difluorophenyl)isoxazol-4-yl)ethyl)piperazin-1-yl)-1-methyl-1H-indole-3-carboxylic Acid] yielded an EC50 of 1640 nM. Regarding `CC1CN(CCc2c(-c3c(Cl)cccc3Cl)noc2C2CC2)CCN1c1ccc(CC(=O)O)cc1` (stereo not shown) [Example I13, 2-(4-(4-(2-(5-cyclopropyl-3-(2,6-dichlorophenyl)isoxazol-4-yl)ethyl)-2-methylpiperazin-1-yl)phenyl)acetic Acid], the maximum response (Emax) was determined as 34.9% and it took 1530 nM to reach a half-maximal effect (EC50). Compound `Cn1cc(C(=O)O)c2ccc(N3CCN(CCc4c(-c5ccc(Cl)cc5Cl)noc4C4CC4)CC3)cc21` [Example I16, 6-(4-(2-(5-cyclopropyl-3-(2,4-dichlorophenyl)isoxazol-4-yl)ethyl)piperazin-1-yl)-1-methyl-1H-indole-3-carboxylic Acid] showed an EC50 of over 10000 nM.

Take `Cn1cc(C(=O)O)c2ccc(N3CCN(CCc4c(-c5ccccc5F)noc4C4CC4)CC3)cc21` [Example I19, 6-(4-(2-(5-cyclopropyl-3-(2-fluorophenyl)isoxazol-4-yl)ethyl)piperazin-1-yl)-1-methyl-1H-indole-3-carboxylic Acid]: the Emax came out at 104% and the EC50 amounted to 4360 nM. Turning to `CC(Cc1c(-c2c(Cl)cccc2Cl)noc1C1CC1)N1CCN(c2ccc3c(C(=O)O)cn(C)c3c2)CC1` (stereo not shown) [Example I23, 6-(4-(1-(5-cyclopropyl-3-(2,6-dichlorophenyl)isoxazol-4-yl)propan-2-yl)piperazin-1-yl)-1-methyl-1H-indole-3-carboxylic Acid], the maximal effect (Emax) turned out to be 35.7% and a half-maximal response (EC50) required 1370 nM.

As for `Cn1cc(C(=O)O)c2ccc(N3C[C@H]4C[C@@H]3CN4CCc3c(-c4c(Cl)cccc4Cl)noc3C3CC3)cc21` [Example I28, 6-((1R,4R)-5-(2-(5-cyclopropyl-3-(2,6-dichlorophenyl)isoxazol-4-yl)ethyl)-2,5-diazabicyclo[2.2.1]heptan-2-yl)-1-methyl-1H-indole-3-carboxylic Acid], the Emax stood at 132% and the EC50 turned out to be 1340 nM. As to `Cn1cc(C(=O)O)c2ccc(N3CC4CC3CN4CCc3c(-c4c(Cl)cccc4Cl)noc3C3CC3)cc21` (stereo not shown) [Example I29, 6-(5-(2-(5-cyclopropyl-3-(2,6-dichlorophenyl)isoxazol-4-yl)ethyl)-2,5-diazabicyclo[2.2.1]heptan-2-yl)-1-methyl-1H-indole-3-carboxylic Acid], the “Pct Effect (Emax %)” value was determined as 68.08% and a half-maximal response (EC50) required 3810 nM. Take `O=C(O)c1cc(F)c2nc(N3C4CCC3CN(CCc3c(-c5c(Cl)cccc5Cl)noc3C3CC3)C4)sc2c1` [Example I31, 2-(3-(2-(5-cyclopropyl-3-(2,6-dichlorophenyl)isoxazol-4-yl)ethyl)-3,8-diazabicyclo[3.2.1]octan-8-yl)-4-fluorobenzo[d]thiazole-6-carboxylic Acid]: the Emax was found to be 45.1% and the concentration for a half-maximal effect (EC50) was found to be 41 nM. `O=C(O)c1cc(F)c2nc(N3C4CCC3CN(CCc3c(-c5ccccc5OC(F)(F)F)noc3C3CC3)C4)sc2c1` [Example I32, 2-(3-(2-(5-cyclopropyl-3-(2-(trifluoromethoxy)phenyl)isoxazol-4-yl)ethyl)-3,8-diazabicyclo[3.2.1]octan-8-yl)-4-fluorobenzo[d]thiazole-6-carboxylic Acid]: the Emax is 47.7% and the midpoint of the response, the EC50, lay at 129 nM. For `O=C(O)c1ccc2nc(N3C4CCC3CN(CCc3c(-c5c(Cl)cccc5Cl)noc3C3CC3)C4)sc2c1` [Example I33, 2-(3-(2-(5-cyclopropyl-3-(2,6-dichlorophenyl)isoxazol-4-yl)ethyl)-3,8-diazabicyclo[3.2.1]octan-8-yl)benzo[d]thiazole-6-carboxylic Acid], in that order: 43.3% and 97 nM. For `O=C(O)c1ccc2nc(N3C4CCC3CN(CCc3c(-c5ccccc5OC(F)(F)F)noc3C3CC3)C4)sc2c1` [Example I34, 2-(3-(2-(5-cyclopropyl-3-(2-(trifluoromethoxy)phenyl)isoxazol-4-yl)ethyl)-3,8-diazabicyclo[3.2.1]octan-8-yl)benzo[d]thiazole-6-carboxylic Acid], in that order: 41.5% and 236 nM. For `C[C@H]1CN(CCc2c(-c3c(Cl)cccc3Cl)noc2C2CC2)CCN1c1ccc2c(C(=O)O)cn(C)c2c1` [Example I39, (S)-6-(4-(2-(5-cyclopropyl-3-(2,6-dichlorophenyl)isoxazol-4-yl)ethyl)-2-methylpiperazin-1-yl)-1-methyl-1H-indole-3-carboxylic Acid], in that order: 129% and 150 nM.

On to `Cn1cc(C(=O)O)c2ccc(N3CC4CCC(C3)N4CCc3c(-c4c(Cl)cccc4Cl)noc3C3CC3)cc21` [Example I41, 6-(8-(2-(5-cyclopropyl-3-(2,6-dichlorophenyl)isoxazol-4-yl)ethyl)-3,8-diazabicyclo[3.2.1]octan-3-yl)-1-methyl-1H-indole-3-carboxylic Acid], for which the Emax came to 158% and it took 200 nM to reach a half-maximal effect (EC50). For `C[C@@H]1CN(CCc2c(-c3c(Cl)cccc3Cl)noc2C2CC2)C[C@H](C)N1c1ccc2c(C(=O)O)cn(C)c2c1` [Example I43, 6-((2S,6R)-4-(2-(5-cyclopropyl-3-(2,6-dichlorophenyl)isoxazol-4-yl)ethyl)-2,6-dimethylpiperazin-1-yl)-1-methyl-1H-indole-3-carboxylic Acid], in that order: 110% and 1400 nM. For the compound `C[C@@H]1CN(CCc2c(-c3c(Cl)cccc3Cl)noc2C2CC2)C[C@@H](C)N1c1ccc2c(C(=O)O)cn(C)c2c1` [Example I44, 6-((2R,6R)-4-(2-(5-cyclopropyl-3-(2,6-dichlorophenyl)isoxazol-4-yl)ethyl)-2,6-dimethylpiperazin-1-yl)-1-methyl-1H-indole-3-carboxylic Acid], the Emax amounted to 73.5% and the EC50 was 401 nM. As to `Cn1cc(C(=O)O)c2c(F)cc(N3CCN(CCc4c(-c5c(Cl)cccc5Cl)noc4C4CC4)CC3)cc21` [Example I46, 6-(4-(2-(5-cyclopropyl-3-(2,6-dichlorophenyl)isoxazol-4-yl)ethyl)piperazin-1-yl)-4-fluoro-1-methyl-1H-indole-3-carboxylic Acid], the Emax came to 168% and a half-maximal effect (EC50) was put at 149 nM.

Turning to `Cn1cc(C(=O)O)c2ccc(N3CC4CC3CN4CCc3c(-c4c(Cl)cccc4Cl)noc3C3CC3)cc21` (stereo not shown) [Example I48, 6-(5-(2-(5-cyclopropyl-3-(2,6-dichlorophenyl)isoxazol-4-yl)ethyl)-2,5-diazabicyclo[2.2.1]heptan-2-yl)-1-methyl-1H-indole-3-carboxylic Acid], the “Pct Effect (Emax %)” value was found to be 124.90% and the response was half-maximal at 1720 nM (EC50).
